Measurements: patent US7803364B2, “Multipotent neural stem cells” (The Cleveland Clinic Foundation, priority 2005, dated 2010)

How the values were obtained:
[1] = test system: βT4 secondary neurospheres; assay: Secondary βT4 neurosphere differentiation into TuJ1-positive neurons and O4-positive oligodendrocytes; assay type: cell-based, rat; conditions: PDGF-A alone or in combination with SHH
From the text: With this assay, we will determine whether growth factors or secreted products from activated immune cells affect βT4 neurosphere behavior. Using standard neurosphere medium and N2 only medium as positive and negative controls for cell growth, we tested the effects of two concentrations of sonic hedgehog on oligodendrocyte and neuron production.
If βT4 cells represent a CNS stem cell, growth factors should induce βT4 cell division and regulate the production of mature CNS cells. […]
Undissociated secondary neurospheres were plated onto PLL-coated coverslips and analyzed at either 24 hours or 7 days in vitro with DMEM/F12, Glutamax and Penicillin-Streptomycin (1%, Cellgro) with different supplements as follows: N2 (1%); N2 (1%) plus sonic hedgehog (SHH, 1000 ng/ml, R&D, Minneapolis, Minn.); “neurosphere medium” (N2 (1%), EGF (20 ng/ml), FGF2, 20 ng/ml).
βT4 positive cell percentage in control and Ara-C-treated cultures were quantified by counting 10 randomly selected fields using standard fluorescence microscopy and a 20× objective. βT4 positive primary neurosphere and secondary neurosphere percentage were quantified by counting 10 randomly selected fields using a 10× objective. […]

[2] = test system: βT4 cells in neurospheres from P4 rat brain lateral ventricle; assay: Ara-C enrichment of βT4 cells in neurosphere cultures; assay type: cell-based
From the text: We developed in vitro methods to study and enrich for βT4 cells. We harvested the lateral and medial wall of the lateral ventricles from P4 rat brain. As shown schematically in FIG. 12A, the tissue was dissociated into single cells and placed in neurosphere assay medium. Four days later, we attached the neurospheres to coverslips and stained for βT4. […] In an attempt to purify or enrich for βT4 cells, we treated P4 neurospheres (on coverslips) with cytosine-β-D-arabinofuranoside (Ara-C; for 4 days), which kills actively dividing cells. We dissociated the remaining cells and placed them in neurosphere-forming conditions for 4 days, plated the resulting neurospheres on coverslips and stained them for βIV tubulin.
The “dissociated” cultures had growth properties similar to the plated primary neurospheres.
Primary neurospheres, generated as described above, were dissociated with trypsin and trituration and then plated onto poly-L-lysine-coated (P-1274, Sigma) coverslips (10^5 cells/12 mm coverslip). The coverslips were incubated in neurosphere medium with cytoarabinoside-C (Ara-C, 10 μM, Sigma) for 4 days. Cells were detached from the coverslips by incubation on ice. […] The neurospheres resulting from these procedures are defined as secondary neurospheres and were analyzed by immunocytochemistry as described above or induced to differentiate.

## PDGF-A: platelet-derived growth factor added alone or with SHH
[1]
  effect on differentiation of secondary neurospheres: had not effect on differentiation

## cytosine-β-D-arabinofuranoside [Ara-C]
[2]; Ara-C 4 days versus culture without Ara-C (0.03%)
  enrichment in βT4 cells: 2700 fold
[2]; secondary neurospheres made from Ara-C-resistant primary neurospheres
  percent of cells in secondary neurospheres βT4-positive: > 83%
